Measured values published in patent publication US4708966A, “Novel anti-inflammatory agents, pharmaceutical compositions and methods for reducing inflammation” (The Procter & Gamble Company, priority 1986, dated 1987).

Assays:
[1] = system: carrageenan rat paw edema; assay: Carrageenan Rat Paw Edema Test; type: in vivo, Male Sprague-Dawley rats
Protocol: Carrageenan Rat Paw Edema Test
Male Sprague-Dawley rats (Charles River Laboratories) are weighed and food fasted overnight. The animals are then divided into four to six groups of six animals each according to body weights (average about 145 g) so that each group has about the same average body weight (within 10 g).
The following morning animals are dosed with the test compound and then placed in individual cages. For oral dosing, the drug is suspended in 0.5% methyl cellulose with 2% Tween 80, and delivered via stomach tube in a 5 ml volume.
Paw volumes (0 time) are determined on both hind paws with a mercury displacement device equipped with a transducer and digitizer. One hour after dosing the test compound, the animals are placed in a plastic restrainer and 50 ul of a 1% (w/w) carrageenan solution in 0.9% saline is injected into the ventral surface of the left rear paw. Four hours after the carrageenan injection, the paw volumes are again determined.
The results are expressed as percent inhibition of the mean paw volume of the test group relative to the control group. Statistical differences are determined by one way analysis of variance. ID35 values are determined by regression analysis.

[2] = system: oxazolone-induced inflamed mouse ear; assay: Oxazolone-Induced Inflamed Mouse Ear Test (Ox-IMET); type: in vivo, Adult male Cox ICR mice; details: topical, 25 ul of 10% in ethanol, 24 h after challenge, vs control group, read-out: Percent Inhibition
Protocol: Oxazolone-Induced Inflamed Mouse Ear Test ("Ox-IMET")
Adult male Cox ICR mice, 25-35 g, are sensitized by applying 3% oxazolone in olive oil to the clipped abdomen of each animal using a cotton swab. One week later, the mice are challenged on the inner surface of the left ear with 3% oxazolone in aceotone. At the same time 25 ul of the test compound (10% in ethanol) is applied to the outer surface of the same ear. Twenty four hours after the challenge, the animals are sacrificed by cervical dislocation and both ears are removed. A 5 mm punch biopsy is removed from both ears and is weighed to the nearest 0.1 mg on a Cahn electrobalance. Ten animals are used per group. The study usually consists of 4 to 6 groups, of which one is a control group which is challenged on the left ear, but is not treated with a test compound. The results are expressed as percent inhibition of the swelling response compared to the control group. Statistical tests for significance between groups are made using a one way analysis of variance of the ear weight differences.

[3] = system: adjuvant arthritis (modified Freund's adjuvant); assay: Adjuvant Arthritis - Therapeutic; type: in vivo, Male Sprague-Dawley rats; details: for Body Weights % Increase / Bone Resorption % Inhibition / Paw Volume % Decrease: 2 x/day, days 20 through 28
Protocol: (§1) Adjuvant Arthritis Methodology
(§2) Male Sprague-Dawley rats weighing 167-170 gm are allowed to acclimate to the laboratory for at least 3 days. Ten rats are then assigned to the healthy control group and the remaining rats are assigned to the arthritic group. On day 0, the rats in the arthritic group are injected subcutaneously in the middle of their tail with a modified Freund's adjuvant (MFA) at a dosage of 0.05 ml/100 gm body weight. The MFA is made by grinding Mycobacterium butyricum (Mb) and then mixing with mineral oil at a concentration of 10 mg Mb/ml of mineral oil. This is mixed in an Omni mixer for 45 minutes.
Paw volumes and body weights are determined on days -1, 6, 13, 19, 26, and 29. On day 19, paw volume changes from day -1 are determined for the arthritic group. The rats with paw volume changes≥0.50 ml but ≤2.50 ml are randomized by paw volume changes into the treatment groups on day 20. […] On day 29, two representative rats from each treatment group are photographed, paw volumes and body weights are determined, and then the rats are sacrificed with CO2 and x-rays are taken.
(§3) The radiographs are used to grade bone resorption. Bone resorption is graded in 20 areas of the fore and hind paws. The areas for grading on the hind paw are: distal femur end, proximal tibia and tibula, distal end of the tibia and the small bone under the tibia, calcaneous, tarsus, and metatarsus. The areas on the fore paws are: radius, ulna, carpus, and metacarpus. Each area is given a grade of 0 (no resorption) or 1 (resorption) for possible grade of 20 of each animal.

[4] = system: adjuvant arthritis (modified Freund's adjuvant); assay: Adjuvant Arthritis - Immunomodulatory; type: in vivo, Male Sprague-Dawley rats; details: 15 mg/kg, 2 x/day, day -1 through day 7
Protocol: as §1, §2
Paw volumes and body weights are determined on days -1, 6, 13, 19, 26, and 29. On day 19, paw volume changes from day -1 are determined for the arthritic group. The rats with paw volume changes≥0.50 ml but ≤2.50 ml are randomized by paw volume changes into the treatment groups on day 20. On days 20 through 28, the rats are orally dosed twice a day (once a day on weekends). On day 29, two representative rats from each treatment group are photographed, paw volumes and body weights are determined, and then the rats are sacrificed with CO2 and x-rays are taken.
as §3
The same procedures as for the therapeutic, except the rats are randomly assigned to the treatment groups including the healthy control group by body weights on day -2. Paw volumes and body weights are determined on days -1, 6, 13, 20, and 27. The rats are treated from day -1 through day 7. The rats are sacrificed on day 28 and x-rayed. The radiographs are graded as above using a severity scale from 0 (no resorption) to 3 (severe resorption).

cyclooxygenase ("COX") = assay: inhibition of cyclooxygenase in arachidonic acid metabolism; type: biochemical
lipoxygenase ("LOX") = assay: inhibition of lipoxygenase in arachidonic acid metabolism; type: biochemical
[5] = antioxidant and free radical scavenging activity
[6] = gastric damage / gastrointestinal irritation; type: in vivo; details: levels significantly greater than the therapeutic dose, test animals
[7] = oral anti-pyretic activity; type: in vivo
Protocol: In order to determine and assess pharmacological activity, testing of these compounds in animals is carried out using various assays known to those skilled in the art. […] Examples of such known tests include the carrageenan rat edema test, the oxazolone-induced inflamed mouse ear test, and the arachidonic acid-induced inflamed mouse ear test. Anti-pyretic acitivity may be tested using art-known rat models, and analgesic acitivty may be tested in art-known models such as the acetylcholine model in mice, the Randall-Selitto model in rats, and the hot-plate test in mice. Another useful art-known test is the adjuvant arthritis test which is a useful model for assessing anti-inflammatory activity and anti-resorptive activity in a chronic, rather than acute, model.

osteoarthritis = assay: tablets in a patient suffering from osteoarthritis; type: in vivo; details: tablet, 200 mg Compound 11, twice daily
Protocol: Pharmaceutical Compositions in Tablet Form
Tablets are prepared by conventional methods, such as mixing and direct compaction, formulated as follows: […]

[8] = system: rheumatoid arthritis or osteoarthritis; assay: capsules in a patient afflicted with rheumatoid arthritis or osteoarthritis; type: in vivo; details: capsule, 200 mg Compound 11, oral, once a day
Protocol: Pharmaceutical Compositions in Capsule Form
Capsules are prepared by conventional methods, comprised as follows: […]

## C#CCCCC(=O)c1cc(C(C)(C)C)c(O)c(C(C)(C)C)c1 [Compound 11, 4-(5'-hexynoyl)-2,6-di-t-butylphenol]
[1]; 4 h, oral, by regression analysis, read-out: ID35
  ED35: 4.8 mg/kg
[1]; po, 100 mg/kg P.O., paw volume 4 h after carrageenan, vs control group, read-out: Percent Inhibiton at 100 mg/kg dose P.O
  inhibition in vivo at 100 mg/kg: 67.6%
[2]
  inhibition in vivo at 10 %: 34.1%
[3]; 5 mg/kg, oral
  Body Weights % Increase: 36%
  Bone Resorption % Inhibition: 37%
  Paw Volume % Decrease: 75%
[3]; 15 mg/kg, oral
  Body Weights % Increase: 34%
  Bone Resorption % Inhibition: 50%
  Paw Volume % Decrease: 83%
[3]; arthritic animal models
  decrease of bone resorption in arthritic animal models: ability to decrease bone resorption
[3]; oral, dosed therapeutically
  oral anti-arthritic activity in a rat adjuvant arthritis model: anti-arthritic activity
[4]
  Body Weights % Increase: 30%
  Paw Volume % Decrease: 48%
[4]; severity scale 0-3
  Bone Resorption % Inhibition: 57%
Cyclooxygenase ("COX")
  inhibition of cyclooxygenase (COX): dual inhibitor
Lipoxygenase ("LOX")
  inhibition of lipoxygenase (LOX): dual inhibitor
[5]
  antioxidant and free radical scavenging activity: antioxidant and free radical scavenging activity
[6]
  gastric damage after oral dosing: very low or no gastric damage
[7]
  oral anti-pyretic activity: oral anti-pyretic activity
osteoarthritis
  benefit: significant benefit
[8]
  reduction of symptomology: substantially reduces the symptomology
